In ChEMBL document CHEMBL3804811 (J Med Chem, 2016):
The source made the active and inactive calls. The calls are words filed in the database; no cut-off is given here.

How the values were obtained:
[1] = target: T1, Tyrosine-protein kinase JAK3 (Homo sapiens, UniProt P52333); assay: Inhibition of JAK3 (unknown origin) in presence of gamma33-ATP
T1 sequence (P52333 whole entry): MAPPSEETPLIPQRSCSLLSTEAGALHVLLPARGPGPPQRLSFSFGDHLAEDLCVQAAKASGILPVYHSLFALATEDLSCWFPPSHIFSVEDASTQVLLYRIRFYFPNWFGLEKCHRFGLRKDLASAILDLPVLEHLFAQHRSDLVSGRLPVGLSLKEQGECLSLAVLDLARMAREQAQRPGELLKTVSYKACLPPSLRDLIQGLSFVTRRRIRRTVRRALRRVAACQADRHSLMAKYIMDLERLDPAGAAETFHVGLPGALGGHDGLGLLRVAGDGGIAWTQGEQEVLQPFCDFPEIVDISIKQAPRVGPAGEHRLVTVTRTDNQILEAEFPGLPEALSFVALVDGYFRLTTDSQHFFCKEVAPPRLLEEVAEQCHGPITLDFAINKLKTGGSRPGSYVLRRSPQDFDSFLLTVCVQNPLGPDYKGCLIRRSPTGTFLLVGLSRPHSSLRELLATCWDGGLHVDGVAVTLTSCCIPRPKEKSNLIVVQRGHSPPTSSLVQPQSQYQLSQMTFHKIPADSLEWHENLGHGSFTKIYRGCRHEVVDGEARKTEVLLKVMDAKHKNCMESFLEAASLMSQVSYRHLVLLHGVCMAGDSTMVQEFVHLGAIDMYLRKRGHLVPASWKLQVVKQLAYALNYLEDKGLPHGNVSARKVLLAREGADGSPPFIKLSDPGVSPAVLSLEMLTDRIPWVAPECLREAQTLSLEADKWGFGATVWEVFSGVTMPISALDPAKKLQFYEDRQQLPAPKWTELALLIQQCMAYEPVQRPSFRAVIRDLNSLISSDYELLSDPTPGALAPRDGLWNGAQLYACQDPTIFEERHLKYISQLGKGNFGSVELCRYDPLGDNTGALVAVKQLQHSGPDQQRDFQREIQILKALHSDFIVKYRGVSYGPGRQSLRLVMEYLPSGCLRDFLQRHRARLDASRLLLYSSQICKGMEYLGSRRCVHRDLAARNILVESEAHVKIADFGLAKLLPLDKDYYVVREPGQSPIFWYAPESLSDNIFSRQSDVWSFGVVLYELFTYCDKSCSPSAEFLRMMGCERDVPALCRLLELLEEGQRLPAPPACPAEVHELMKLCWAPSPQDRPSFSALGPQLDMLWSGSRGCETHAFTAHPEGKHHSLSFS

[2] = AUC (infinity) in Beagle dog at 10 mg/kg, iv administered as single dose by LC-MS/MS analysis; format: ADME, organism-based, Canis lupus familiaris; set-up: dose 10 mg/kg, route intravenous, time infinity; settings: in vivo
[3] = AUC (infinity) in Harlan nu/nu mouse at 10 mg/kg, po administered as single dose by LC-MS/MS analysis; format: ADME, organism-based; set-up: dose 10 mg/kg, route oral, time infinity; settings: in vivo
[4] = Drug uptake in Harlan nu/nu mouse brain at 240 mg/kg, po administered per day for 2 weeks measured 6 hrs post last dose by LC-MS/MS analysis; format: ADME, organism-based; settings: read-out: Drug uptake
[5] = target: Vascular endothelial growth factor receptor 3 (Homo sapiens, UniProt P35916); assay: Inhibition of VEGFR3 (unknown origin) in presence of gamma33-ATP
Sequence of Vascular endothelial growth factor receptor 3 (P35916 whole entry): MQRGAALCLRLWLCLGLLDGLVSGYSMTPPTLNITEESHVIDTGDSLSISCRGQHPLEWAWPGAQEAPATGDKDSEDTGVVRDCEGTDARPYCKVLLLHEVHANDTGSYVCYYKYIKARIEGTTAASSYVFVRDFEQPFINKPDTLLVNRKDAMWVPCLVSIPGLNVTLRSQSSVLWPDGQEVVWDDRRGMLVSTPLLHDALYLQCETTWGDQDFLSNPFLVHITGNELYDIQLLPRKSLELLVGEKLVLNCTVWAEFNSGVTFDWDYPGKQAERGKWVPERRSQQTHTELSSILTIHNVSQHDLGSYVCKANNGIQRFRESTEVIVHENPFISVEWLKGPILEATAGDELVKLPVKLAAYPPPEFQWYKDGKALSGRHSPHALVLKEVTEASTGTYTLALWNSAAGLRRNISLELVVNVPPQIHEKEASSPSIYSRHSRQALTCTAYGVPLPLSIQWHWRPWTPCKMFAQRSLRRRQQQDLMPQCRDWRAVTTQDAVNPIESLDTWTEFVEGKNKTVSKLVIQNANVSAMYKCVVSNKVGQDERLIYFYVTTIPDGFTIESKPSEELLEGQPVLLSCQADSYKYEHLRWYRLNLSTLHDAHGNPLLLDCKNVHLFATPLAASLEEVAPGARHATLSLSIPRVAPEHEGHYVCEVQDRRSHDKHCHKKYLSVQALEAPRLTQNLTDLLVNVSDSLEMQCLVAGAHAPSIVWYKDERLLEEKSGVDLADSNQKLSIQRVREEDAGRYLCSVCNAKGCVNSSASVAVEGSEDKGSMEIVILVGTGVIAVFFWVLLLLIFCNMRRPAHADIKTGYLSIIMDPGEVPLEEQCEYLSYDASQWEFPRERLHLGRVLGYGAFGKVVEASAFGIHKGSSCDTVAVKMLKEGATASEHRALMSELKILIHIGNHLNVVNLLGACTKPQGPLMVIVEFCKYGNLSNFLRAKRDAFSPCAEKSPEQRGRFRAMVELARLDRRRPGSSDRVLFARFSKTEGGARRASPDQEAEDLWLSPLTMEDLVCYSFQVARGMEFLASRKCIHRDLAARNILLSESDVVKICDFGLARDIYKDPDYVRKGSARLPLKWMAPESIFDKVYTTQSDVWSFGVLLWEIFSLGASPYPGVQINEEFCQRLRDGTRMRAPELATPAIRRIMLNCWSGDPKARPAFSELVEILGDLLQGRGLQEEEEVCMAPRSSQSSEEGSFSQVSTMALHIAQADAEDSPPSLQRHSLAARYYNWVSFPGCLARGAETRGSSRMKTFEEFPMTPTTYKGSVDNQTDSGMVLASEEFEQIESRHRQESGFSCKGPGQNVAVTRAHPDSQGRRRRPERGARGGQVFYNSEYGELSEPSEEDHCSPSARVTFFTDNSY

[6] = Inhibition of SULU1 (unknown origin) in presence of gamma33-ATP; set-up: species or system Homo sapiens
[7] = AUC (infinity) in Sprague-Dawley rat at 10 mg/kg, iv administered as single dose by LC-MS/MS analysis; format: ADME, organism-based; set-up: dose 10 mg/kg, time infinity, route intravenous; settings: in vivo
NCI-H2228 = settings: Homo sapiens
Description: Antitumor activity against human NCI-H2228 cells xenografted in athymic nu/nu mouse assessed as tumor growth inhibition at 30 to 60 mg/kg, po bid administered for 10 days

[8] = Apparent permeability from apical to basolateral side in human Caco2 cells at 2.5 mg/ml after 2 hrs by reversed-phase HPLC method; format: ADME, cell-based; settings: Caco-2
[9] = Oral bioavailability in Harlan nu/nu mouse at 10 mg/kg administered as single dose by LC-MS/MS analysis; format: ADME, organism-based; settings: in vivo
[10] = Cytotoxicity against mouse IL-3 dependent BA/F3 cells incubated for 72 hrs by cell titer-glo assay; format: cell-based; settings: BaF3, 72 h
[11] = Half life in Sprague-Dawley rat at 10 mg/kg, iv administered as single dose by LC-MS/MS analysis; format: ADME, organism-based; settings: in vivo
[12] = Ratio of drug level in brain to plasma in Harlan nu/nu mouse at 240 mg/kg, po administered per day for 2 weeks measured 6 hrs post last dose by LC-MS/MS analysis; format: ADME, organism-based; settings: read-out: BPR
KARPAS-299 = settings: Homo sapiens
Description: Antitumor activity against human KARPAS299 cells xenografted in SCID mouse assessed as tumor growth inhibition at 30 to 60 mg/kg, po bid administered for 10 days

[13] = Apparent permeability from basolateral to apical side in human Caco2 cells at 2.5 mg/ml after 2 hrs by reversed-phase HPLC method; format: ADME, cell-based; settings: Caco-2
[14] = Antiproliferative activity against human SU-DHL1 cells expressing ALK protein incubated for 72 hrs by cell titer-glo assay; format: functional, cell-based; settings: SU-DHL-1, 72 h
[15] = Tmax in Harlan nu/nu mouse at 10 mg/kg, po administered as single dose by LC-MS/MS analysis; format: ADME, organism-based; settings: in vivo
[16] = Half life in Sprague-Dawley rat at 10 mg/kg, po administered as single dose by LC-MS/MS analysis; format: ADME, organism-based; settings: in vivo
[17] = Clearance in Harlan nu/nu mouse at 10 mg/kg, iv administered as single dose by LC-MS/MS analysis; format: ADME, organism-based; settings: in vivo
[18] = Plasma concentration in Harlan nu/nu mouse at 240 mg/kg, po administered per day for 2 weeks measured 6 hrs post last dose by LC-MS/MS analysis; format: ADME, organism-based

## CN1CCN(c2ccc(C(=O)Nc3n[nH]c4ccc(Cc5cc(F)cc(F)c5)cc34)c(NC3CCOCC3)c2)CC1 [ENTRECTINIB]
[1]
  IC50: 349 nM
[2]
  AUC(0-inf): 17.6 µM·h
[3]
  AUC(0-inf): 17.4 µM·h
[4]
  concentration at 6 h: 1940 nM
[5]
  IC50: > 1000 nM
[6]
  IC50: > 10 µM
[7]
  AUC(0-inf): 15.1 µM·h
NCI-H2228
  TGI: Active
[8]
  Papp A→B at 2 h, 2.5 mg/ml: 2.4 ×10⁻⁶ cm/s
[9]
  bioavailability: 77%
[10]
  IC50: 2100 nM
[11]
  half-life: 210 min
[12]
  Kp at 6 h: 0.43
KARPAS-299
  TGI: Active
[13]
  Papp B→A at 2 h, 2.5 mg/ml: 3 ×10⁻⁶ cm/s
[14]
  IC50: 24 nM
[15]
  Tmax: 2.5 h
[16]
  half-life: 228 min
[17]
  clearance: 13.5 mL/min/kg
[18]
  concentration at 6 h: 4.57 µM
